Measured values reported in ChEMBL document CHEMBL1201862, “PubChem BioAssay data set” (2004).
Active and inactive are the calls of the source.

Columns and labels:
Protein RecA = molecular target: T1, Protein RecA (Mycobacterium tuberculosis, UniProt P9WHJ3); assay: Fluorescence Cell-Free Homogeneous Dose Retest to Identify Inhibitors of RecA-Intein Splicing Activity. [Related pubchem assays (depositor defined):AID2097, AID2223, AID489010, AID492950]; format: functional
T1 sequence (P9WHJ3 whole entry): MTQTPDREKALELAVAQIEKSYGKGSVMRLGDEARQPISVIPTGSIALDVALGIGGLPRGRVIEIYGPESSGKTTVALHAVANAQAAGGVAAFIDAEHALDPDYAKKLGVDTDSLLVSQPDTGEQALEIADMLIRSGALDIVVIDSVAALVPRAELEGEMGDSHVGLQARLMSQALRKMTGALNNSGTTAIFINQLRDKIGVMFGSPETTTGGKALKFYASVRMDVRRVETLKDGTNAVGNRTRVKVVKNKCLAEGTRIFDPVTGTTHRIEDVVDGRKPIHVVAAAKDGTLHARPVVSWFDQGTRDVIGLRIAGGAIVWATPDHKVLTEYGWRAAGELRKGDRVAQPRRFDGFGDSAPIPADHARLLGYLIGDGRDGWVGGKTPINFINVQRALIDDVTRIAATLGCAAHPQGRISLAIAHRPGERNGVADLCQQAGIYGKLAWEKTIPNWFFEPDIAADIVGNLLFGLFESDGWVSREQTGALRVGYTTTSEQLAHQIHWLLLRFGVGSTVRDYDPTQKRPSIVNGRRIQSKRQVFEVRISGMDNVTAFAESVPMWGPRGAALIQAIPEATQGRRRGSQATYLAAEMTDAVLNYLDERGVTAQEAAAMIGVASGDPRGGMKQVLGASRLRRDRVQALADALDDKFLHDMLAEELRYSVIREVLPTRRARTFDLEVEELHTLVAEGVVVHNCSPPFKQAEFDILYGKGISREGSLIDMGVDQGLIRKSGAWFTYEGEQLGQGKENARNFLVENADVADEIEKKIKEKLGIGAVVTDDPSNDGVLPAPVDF

[1] = molecular target: Hepatocyte nuclear factor 4-alpha (Homo sapiens, UniProt P41235); format: functional, cell-based;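 further: biochemical luminescence-based dose-response counterscreen measuring inhibition of HNF4 dimerization, run alongside a screen for blockers of ABHD5–perilipin-5 interaction; split luciferase complementation of HNF4 fusion proteins in cell lysate measuring dimerization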
Sequence of Hepatocyte nuclear factor 4-alpha (P41235 whole entry, the tested form may be a part): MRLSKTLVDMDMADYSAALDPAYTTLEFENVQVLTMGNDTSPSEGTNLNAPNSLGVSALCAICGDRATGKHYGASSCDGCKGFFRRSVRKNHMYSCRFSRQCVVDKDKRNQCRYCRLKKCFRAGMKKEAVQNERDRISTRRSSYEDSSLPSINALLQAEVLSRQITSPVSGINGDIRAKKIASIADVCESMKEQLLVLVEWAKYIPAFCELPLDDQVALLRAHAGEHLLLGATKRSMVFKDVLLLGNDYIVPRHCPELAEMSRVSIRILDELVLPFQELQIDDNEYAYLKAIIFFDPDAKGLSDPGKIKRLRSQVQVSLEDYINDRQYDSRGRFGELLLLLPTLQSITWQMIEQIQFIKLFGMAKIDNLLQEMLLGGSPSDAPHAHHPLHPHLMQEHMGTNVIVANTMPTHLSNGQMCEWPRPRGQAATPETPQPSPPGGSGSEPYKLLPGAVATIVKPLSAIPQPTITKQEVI

[2] = non-specific 3'UTR reporter inhibition in Clone20-Shn3RL – cell-based, Renilla luciferase, cherry-picked, counter-screen for Shn3 inhibitor project, dose response (AID 624133); format: functional
[3] = Intein inhibitors as potential Tuberculosis drugs, a cytotoxicity screen. [Related pubchem assays (depositor defined):AID2221, AID2223, AID434968, AID435010, AID449749, AID449750, AID489010]; format: functional
[4] = molecular target: T2, Ubiquitin-conjugating enzyme E2 N (Homo sapiens, UniProt P61088); format: functional
T2 sequence (P61088 whole entry): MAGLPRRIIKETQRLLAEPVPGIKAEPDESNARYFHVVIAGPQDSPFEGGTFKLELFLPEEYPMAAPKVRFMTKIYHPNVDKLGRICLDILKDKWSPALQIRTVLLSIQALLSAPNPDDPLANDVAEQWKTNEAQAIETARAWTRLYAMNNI

[5] = molecular target: T3, Replicative DNA helicase DnaB (Mycobacterium tuberculosis, UniProt P9WMR3); assay: DnaB intein splicing inhibitors, dose response, biochemical, cell-free fluorescence (AID 449749); format: functional
T3 sequence (P9WMR3 whole entry): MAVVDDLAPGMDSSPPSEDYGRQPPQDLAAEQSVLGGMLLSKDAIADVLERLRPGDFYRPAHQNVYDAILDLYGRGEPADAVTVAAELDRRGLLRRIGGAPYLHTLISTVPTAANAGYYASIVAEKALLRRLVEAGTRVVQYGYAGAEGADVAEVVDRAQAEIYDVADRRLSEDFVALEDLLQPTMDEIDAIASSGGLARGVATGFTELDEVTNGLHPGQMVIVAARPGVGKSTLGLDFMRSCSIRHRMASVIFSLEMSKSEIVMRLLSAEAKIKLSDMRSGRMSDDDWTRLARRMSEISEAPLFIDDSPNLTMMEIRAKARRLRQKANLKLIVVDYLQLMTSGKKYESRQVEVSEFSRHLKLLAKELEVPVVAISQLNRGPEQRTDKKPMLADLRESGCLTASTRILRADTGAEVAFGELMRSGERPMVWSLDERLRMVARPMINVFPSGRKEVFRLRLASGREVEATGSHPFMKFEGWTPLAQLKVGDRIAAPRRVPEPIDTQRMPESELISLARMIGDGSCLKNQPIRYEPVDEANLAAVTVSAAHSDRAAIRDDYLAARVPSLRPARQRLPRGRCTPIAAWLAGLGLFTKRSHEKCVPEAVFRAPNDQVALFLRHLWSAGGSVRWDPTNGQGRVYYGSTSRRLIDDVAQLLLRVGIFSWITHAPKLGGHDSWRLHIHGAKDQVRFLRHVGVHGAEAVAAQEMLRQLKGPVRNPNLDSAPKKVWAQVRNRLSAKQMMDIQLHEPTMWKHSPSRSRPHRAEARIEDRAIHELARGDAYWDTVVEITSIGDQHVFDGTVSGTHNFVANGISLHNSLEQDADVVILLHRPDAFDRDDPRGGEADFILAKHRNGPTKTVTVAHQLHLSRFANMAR

[6] = reduction of Shn3 3'UTR-driven luciferase in osteoblasts – cell-based, Clone20 osteoblasts, firefly luciferase, cherry-picked, dose response (AID 624132); format: functional;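 further: firefly luciferase luminescence from reporter carrying the Shn3 3'UTR in osteoblasts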
[7] = molecular target: T2, Ubiquitin-conjugating enzyme E2 N; format: functional; remark: listed apart in the source
Vero = assay: viability of Vero cells under compound – cytotoxicity control for flavivirus capping enzyme inhibitors (AID 588742); format: functional; conditions: Chlorocebus sabaeus
Genome polyprotein = Genome polyprotein (dengue virus type 2, UniProt P29990); assay: flavivirus cap methylation enzyme inhibition – biochemical, confirmation dose response, primary screen (AID 588689); format: functional
Sequence of Genome polyprotein (P29990 2492-3391 limits assumed): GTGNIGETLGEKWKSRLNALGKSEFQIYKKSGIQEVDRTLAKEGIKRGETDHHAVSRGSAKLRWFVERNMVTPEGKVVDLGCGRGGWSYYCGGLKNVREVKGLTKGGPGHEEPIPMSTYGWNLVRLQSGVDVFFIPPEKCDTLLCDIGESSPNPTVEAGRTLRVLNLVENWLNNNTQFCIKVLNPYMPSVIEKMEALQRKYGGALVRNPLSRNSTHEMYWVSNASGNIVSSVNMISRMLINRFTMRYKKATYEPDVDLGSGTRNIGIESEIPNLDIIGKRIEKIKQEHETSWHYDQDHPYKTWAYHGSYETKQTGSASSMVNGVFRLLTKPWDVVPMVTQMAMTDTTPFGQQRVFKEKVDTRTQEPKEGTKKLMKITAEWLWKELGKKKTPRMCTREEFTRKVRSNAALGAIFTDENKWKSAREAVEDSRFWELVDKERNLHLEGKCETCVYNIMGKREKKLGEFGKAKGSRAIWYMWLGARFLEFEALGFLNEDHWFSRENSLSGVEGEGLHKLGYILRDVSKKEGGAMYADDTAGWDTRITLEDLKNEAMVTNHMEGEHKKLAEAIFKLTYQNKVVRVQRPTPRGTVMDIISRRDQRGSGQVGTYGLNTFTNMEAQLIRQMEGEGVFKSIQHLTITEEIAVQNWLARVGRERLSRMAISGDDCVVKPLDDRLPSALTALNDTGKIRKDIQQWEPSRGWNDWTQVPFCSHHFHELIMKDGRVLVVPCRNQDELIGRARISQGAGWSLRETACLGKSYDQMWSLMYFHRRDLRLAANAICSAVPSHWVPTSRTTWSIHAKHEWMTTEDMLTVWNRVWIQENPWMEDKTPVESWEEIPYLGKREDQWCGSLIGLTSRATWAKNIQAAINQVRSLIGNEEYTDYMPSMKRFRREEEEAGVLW

Bcl-2-related protein A1 = molecular target: T4, Bcl-2-related protein A1 (Mus musculus, UniProt Q07440); format: functional;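 further: confirmatory dose–response counterscreen on Bfl-1, used to check hits from a UBC13 polyubiquitin inhibitor campaign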
T4 sequence (Q07440 whole entry): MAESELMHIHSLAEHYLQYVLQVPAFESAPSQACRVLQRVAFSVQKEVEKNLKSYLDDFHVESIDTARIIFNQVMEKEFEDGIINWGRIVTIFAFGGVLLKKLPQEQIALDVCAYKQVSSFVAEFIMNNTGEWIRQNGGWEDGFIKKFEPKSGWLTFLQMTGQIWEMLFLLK

Coagulation factor XII = molecular target: T5, Coagulation factor XII (Homo sapiens, UniProt P00748); assay: Factor XIIa Dose Response Confirmation from Single Well HTS. [Related pubchem assays (depositor defined):AID701]; format: functional
T5 sequence (P00748 whole entry): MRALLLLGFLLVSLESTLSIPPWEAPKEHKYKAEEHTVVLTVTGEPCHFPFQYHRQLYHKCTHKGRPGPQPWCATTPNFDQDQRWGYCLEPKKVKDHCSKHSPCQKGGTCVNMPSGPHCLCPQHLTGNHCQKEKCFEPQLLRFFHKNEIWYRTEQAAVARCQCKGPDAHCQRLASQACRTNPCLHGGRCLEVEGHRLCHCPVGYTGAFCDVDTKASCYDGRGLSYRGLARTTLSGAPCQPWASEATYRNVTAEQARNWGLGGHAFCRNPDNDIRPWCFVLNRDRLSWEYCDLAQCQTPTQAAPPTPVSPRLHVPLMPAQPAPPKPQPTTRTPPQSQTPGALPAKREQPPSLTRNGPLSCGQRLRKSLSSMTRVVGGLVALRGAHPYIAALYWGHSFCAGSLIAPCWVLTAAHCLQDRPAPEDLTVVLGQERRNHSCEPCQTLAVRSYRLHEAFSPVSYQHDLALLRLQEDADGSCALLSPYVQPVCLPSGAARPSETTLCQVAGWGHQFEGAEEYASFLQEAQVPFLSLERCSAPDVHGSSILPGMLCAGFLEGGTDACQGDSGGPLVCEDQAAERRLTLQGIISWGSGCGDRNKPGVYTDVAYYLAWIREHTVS

[8] = molecular target: Voltage-dependent T-type calcium channel subunit alpha-1H (Homo sapiens, UniProt O95180); assay: human CACNA1H calcium influx blockade – cell-based, synthetic library set 2, HEK293 HH8, Fluo-4, SAR follow-up (AID 493023); format: functional
Sequence of Voltage-dependent T-type calcium channel subunit alpha-1H (O95180 whole entry): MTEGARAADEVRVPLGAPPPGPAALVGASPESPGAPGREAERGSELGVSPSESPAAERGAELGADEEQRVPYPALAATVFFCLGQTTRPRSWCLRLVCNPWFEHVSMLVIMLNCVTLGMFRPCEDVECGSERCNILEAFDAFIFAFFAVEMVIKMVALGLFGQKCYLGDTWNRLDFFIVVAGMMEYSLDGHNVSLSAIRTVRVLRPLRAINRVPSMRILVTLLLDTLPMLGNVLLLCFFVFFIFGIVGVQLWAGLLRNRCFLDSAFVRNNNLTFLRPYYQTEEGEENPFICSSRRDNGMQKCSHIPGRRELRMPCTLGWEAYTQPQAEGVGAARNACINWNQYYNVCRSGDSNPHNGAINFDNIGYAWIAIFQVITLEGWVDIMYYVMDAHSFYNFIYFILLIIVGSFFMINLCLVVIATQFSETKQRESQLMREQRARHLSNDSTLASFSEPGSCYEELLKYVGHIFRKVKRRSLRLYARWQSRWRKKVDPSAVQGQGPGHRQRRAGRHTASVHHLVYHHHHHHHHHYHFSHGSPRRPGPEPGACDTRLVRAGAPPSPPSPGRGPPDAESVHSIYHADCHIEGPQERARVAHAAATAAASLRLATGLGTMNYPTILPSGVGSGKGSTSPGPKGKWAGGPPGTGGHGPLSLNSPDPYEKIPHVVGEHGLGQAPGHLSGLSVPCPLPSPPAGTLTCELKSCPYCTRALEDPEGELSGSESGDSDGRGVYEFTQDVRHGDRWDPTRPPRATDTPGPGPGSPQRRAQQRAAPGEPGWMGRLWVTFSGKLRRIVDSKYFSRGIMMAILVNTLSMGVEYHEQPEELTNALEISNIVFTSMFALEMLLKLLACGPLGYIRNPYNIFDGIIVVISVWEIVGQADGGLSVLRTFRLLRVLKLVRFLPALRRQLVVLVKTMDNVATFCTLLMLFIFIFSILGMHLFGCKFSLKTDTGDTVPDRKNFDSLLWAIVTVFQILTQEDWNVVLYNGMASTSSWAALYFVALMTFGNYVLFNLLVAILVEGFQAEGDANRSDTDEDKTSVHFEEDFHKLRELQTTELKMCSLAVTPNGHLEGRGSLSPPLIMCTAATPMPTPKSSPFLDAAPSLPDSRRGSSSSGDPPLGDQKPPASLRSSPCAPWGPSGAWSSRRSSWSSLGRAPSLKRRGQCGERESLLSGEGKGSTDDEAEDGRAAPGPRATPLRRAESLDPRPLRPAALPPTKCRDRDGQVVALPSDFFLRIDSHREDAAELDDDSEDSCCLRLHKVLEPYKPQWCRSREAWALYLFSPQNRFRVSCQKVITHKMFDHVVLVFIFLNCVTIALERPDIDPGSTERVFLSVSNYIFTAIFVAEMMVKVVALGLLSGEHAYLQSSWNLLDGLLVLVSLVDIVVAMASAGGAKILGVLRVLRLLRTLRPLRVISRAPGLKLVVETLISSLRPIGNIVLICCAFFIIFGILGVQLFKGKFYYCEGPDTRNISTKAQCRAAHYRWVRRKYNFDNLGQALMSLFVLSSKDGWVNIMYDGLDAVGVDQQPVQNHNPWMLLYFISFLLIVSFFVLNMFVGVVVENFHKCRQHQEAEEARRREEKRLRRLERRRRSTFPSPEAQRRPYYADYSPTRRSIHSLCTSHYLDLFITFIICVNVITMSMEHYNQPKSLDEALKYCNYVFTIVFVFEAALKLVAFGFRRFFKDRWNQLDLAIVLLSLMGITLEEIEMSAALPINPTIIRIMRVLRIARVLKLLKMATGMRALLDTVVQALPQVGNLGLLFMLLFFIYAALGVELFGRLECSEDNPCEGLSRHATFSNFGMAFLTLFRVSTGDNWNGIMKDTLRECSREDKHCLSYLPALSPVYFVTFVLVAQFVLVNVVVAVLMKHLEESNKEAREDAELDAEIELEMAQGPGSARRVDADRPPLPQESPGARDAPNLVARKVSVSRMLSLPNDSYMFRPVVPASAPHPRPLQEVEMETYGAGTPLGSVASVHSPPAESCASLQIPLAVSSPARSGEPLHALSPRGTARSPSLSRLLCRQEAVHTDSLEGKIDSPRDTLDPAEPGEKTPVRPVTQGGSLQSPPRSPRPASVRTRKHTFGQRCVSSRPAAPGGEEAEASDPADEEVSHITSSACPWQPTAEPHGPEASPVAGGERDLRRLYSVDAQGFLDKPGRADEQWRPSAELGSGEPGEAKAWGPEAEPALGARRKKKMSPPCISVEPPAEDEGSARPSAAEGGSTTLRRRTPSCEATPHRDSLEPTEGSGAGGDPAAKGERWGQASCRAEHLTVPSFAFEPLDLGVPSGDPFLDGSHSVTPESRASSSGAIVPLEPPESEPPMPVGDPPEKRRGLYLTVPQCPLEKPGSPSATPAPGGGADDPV

[9] = molecular target: Peroxisome proliferator-activated receptor gamma/Nuclear receptor coactivator 3 (Homo sapiens, UniProt P37231); format: functional;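 further: agonist potency for raising coactivator recruitment to the receptor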
[10] = Trypanosoma cruzi growth suppression in host cells – NIH3T3 host cells, beta-gal luminescence, confirmation (AID 2044); format: functional, cell-based;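 further: intracellular parasites grown in NIH/3T3 mouse fibroblasts as host cells; luminescent beta-galactosidase reporter signal from transgenic T. cruzi replicating inside host cells; inhibitors lower the luminescence signal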
HEK293 [11] = assay: cells; conditions: Homo sapiens
[12] = molecular target: T6, Heat shock factor protein 1 (Mus musculus, UniProt P38532); assay: enhancement of HSF1-driven luciferase signal – cell-based, NIH3T3, luminescence, dose retest, confirmation (AID 435004); format: functional;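 further: stress induced by proteasome inhibitor MG132 added 30 min after compound; luciferase reporter driven by HSF1 response element in NIH3T3 cells; actives raise luminescence as potentiators of the MG132 stress response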
T6 sequence (P38532 whole entry): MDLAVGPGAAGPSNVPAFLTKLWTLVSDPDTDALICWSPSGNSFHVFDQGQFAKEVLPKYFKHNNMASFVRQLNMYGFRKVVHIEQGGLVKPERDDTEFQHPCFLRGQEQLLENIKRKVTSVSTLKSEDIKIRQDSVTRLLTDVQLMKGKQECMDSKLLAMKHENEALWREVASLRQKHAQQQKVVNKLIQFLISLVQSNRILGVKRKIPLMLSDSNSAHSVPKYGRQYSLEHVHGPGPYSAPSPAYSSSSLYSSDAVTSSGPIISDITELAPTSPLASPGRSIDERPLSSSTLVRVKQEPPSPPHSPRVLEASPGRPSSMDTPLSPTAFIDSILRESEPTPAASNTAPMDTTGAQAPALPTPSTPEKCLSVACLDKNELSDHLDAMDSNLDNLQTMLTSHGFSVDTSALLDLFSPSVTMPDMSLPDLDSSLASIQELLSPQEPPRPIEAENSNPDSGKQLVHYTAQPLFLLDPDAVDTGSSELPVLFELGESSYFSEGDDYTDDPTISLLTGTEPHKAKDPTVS

Hexokinase-1 = Hexokinase-1 (Homo sapiens, UniProt P19367); assay: HK1 enzyme activation by HKDC1 hits – biochemical, selectivity assay for HKDC1 activator project, dose response (AID 504762); format: functional
Sequence of Hexokinase-1 (P19367 whole entry): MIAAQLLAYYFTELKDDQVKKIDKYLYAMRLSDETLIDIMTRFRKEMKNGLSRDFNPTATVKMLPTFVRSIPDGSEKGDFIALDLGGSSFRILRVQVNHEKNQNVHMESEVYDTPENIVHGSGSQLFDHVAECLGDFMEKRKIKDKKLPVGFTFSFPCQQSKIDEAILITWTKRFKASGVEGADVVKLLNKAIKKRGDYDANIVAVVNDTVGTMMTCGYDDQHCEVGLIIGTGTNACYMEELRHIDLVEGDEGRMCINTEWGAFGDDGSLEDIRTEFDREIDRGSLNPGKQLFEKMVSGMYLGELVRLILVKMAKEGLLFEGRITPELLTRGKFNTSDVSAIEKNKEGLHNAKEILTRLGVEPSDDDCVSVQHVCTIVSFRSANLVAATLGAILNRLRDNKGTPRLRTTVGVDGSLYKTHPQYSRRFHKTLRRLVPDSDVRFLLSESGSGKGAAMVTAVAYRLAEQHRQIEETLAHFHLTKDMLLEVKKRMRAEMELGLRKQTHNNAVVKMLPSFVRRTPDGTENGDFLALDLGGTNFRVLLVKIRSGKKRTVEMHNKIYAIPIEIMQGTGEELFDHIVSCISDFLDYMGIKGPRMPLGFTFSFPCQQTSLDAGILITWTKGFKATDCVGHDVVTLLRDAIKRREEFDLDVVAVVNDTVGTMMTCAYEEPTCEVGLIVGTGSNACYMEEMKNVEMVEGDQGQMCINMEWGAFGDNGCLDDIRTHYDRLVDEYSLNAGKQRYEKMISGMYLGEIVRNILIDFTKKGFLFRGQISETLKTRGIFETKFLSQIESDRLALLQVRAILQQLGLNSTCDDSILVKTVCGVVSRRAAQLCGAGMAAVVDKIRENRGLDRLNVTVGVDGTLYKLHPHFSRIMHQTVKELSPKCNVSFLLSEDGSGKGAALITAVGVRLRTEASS

HEK293 [13] = assay: cells; conditions: Homo sapiens; remark: listed apart in the source
[14] = molecular target: Peroxisome proliferator-activated receptor gamma/Nuclear receptor coactivator 1 (Homo sapiens, UniProt P37231); format: functional;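 further: agonist potency as compounds enhance coactivator SRC-1 recruitment to PPARgamma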
[15] = molecular target: Peroxisome proliferator-activated receptor gamma/Nuclear receptor coactivator 2 (Homo sapiens, UniProt P37231); format: functional;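 further: agonist potency for raising coactivator recruitment to the receptor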
Hexokinase HKDC1 = molecular target: T7, Hexokinase HKDC1 (Homo sapiens, UniProt Q2TB90); assay: activation of HKDC1 glucose phosphorylation – biochemical, W721R variant, dose response (AID 504730); format: functional
T7 sequence (Q2TB90 whole entry): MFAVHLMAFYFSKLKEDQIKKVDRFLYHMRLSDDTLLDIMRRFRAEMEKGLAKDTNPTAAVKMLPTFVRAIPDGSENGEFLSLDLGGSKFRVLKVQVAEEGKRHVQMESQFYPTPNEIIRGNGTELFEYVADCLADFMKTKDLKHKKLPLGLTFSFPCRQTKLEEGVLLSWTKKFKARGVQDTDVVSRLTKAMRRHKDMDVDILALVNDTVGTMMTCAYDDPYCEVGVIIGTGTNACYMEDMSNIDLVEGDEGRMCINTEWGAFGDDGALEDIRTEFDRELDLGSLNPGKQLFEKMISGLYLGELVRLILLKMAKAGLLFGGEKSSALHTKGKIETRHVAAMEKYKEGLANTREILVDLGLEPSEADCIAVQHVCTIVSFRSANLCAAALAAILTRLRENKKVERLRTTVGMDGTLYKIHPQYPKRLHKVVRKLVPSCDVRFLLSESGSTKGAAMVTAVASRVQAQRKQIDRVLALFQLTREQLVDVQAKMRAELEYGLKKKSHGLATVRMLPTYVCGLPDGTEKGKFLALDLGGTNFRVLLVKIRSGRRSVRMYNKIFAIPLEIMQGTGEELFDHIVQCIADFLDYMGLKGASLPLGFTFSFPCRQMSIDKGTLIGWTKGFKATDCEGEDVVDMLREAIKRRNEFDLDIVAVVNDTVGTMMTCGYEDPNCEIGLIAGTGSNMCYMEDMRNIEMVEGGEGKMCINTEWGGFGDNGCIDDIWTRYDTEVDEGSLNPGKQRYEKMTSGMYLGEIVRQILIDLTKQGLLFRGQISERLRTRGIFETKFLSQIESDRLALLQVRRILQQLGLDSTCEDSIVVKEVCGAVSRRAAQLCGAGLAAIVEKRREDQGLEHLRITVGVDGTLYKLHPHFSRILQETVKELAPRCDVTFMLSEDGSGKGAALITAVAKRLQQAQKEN

In the case of `Cc1ccc(CS(=O)(=O)c2ncc(Cl)c(C(=O)Nc3nnc(C(C)C)s3)n2)cc1`, the EC50 (Protein RecA) is reported as 0.717 µM (active), the IC50 [1] is reported as 3.27 µM (active) and the AC50 [2] is reported as 4.07 µM (active). The CC50 [3] was 28.3 µM (active), the IC50 [4] was 10.7 µM (active) and the AC50 [5] was 2.95 µM (active). For the same molecule, the AC50 [6] was 1.52 µM (active), the IC50 [7] was > 20 µM (inactive) and the CC50 (Vero) was 29.1 µM (active). For the same molecule, the IC50 (Genome polyprotein) was > 100 µM (active) and the IC50 (Bcl-2-related protein A1) was > 20 µM (inactive).
For `COC(=O)[C@H](C)NC(=O)NC(C)CCc1ccccc1` (some centres not stated), the IC50 (Coagulation factor XII) was > 50 µM (inactive).
With `O=C(NC1CCC2CN(Cc3ccccc3)CC21)c1ccc(Cl)cc1Cl` (configuration not stated) the EC50 [8] was 10 µM (active).
In the case of `O=C(CSc1cccc2cccnc12)N/N=C/c1cccnc1`, the EC50 [9] is reported as > 79.4 µM (not active), the EC50 [10] is reported as 0.579 µM (active) and the EC50 (HEK293 [11]) is reported as > 59.6 µM (inactive). For the same molecule, the EC50 [12] was 6.99 µM (active), the EC50 (Hexokinase-1) was > 80 µM (inactive) and the EC50 (HEK293 [13]) was > 59.6 µM (inactive). For the same molecule, the EC50 [14] was > 79.4 µM (not active), the EC50 [15] was > 79.4 µM (not active) and the EC50 (Hexokinase HKDC1) was 27.6 µM (inactive).
